Test results taken from US5221675A, “Aza-spirocyclic compounds that enhance cholinergic neurotransmission” (Abbott Laboratories, priority 1991, dated 1993).

Key:
rat brain receptor sites = settings: cited from earlier work
[1] = rat; cited from earlier work
[2] = in vivo, cited from earlier work
rats = settings: acutely and chronically administered; cited from earlier work
acetylcholine receptors = settings: chronic administration; cited from earlier work
[3] = system: nigro-striatal dopamine system; settings: chronically administered, after destruction of nigro-striatal dopamine system; cited from earlier work
DBA mice = assay: Inhibitory (passive) avoidance test, 72 hour retention; type: in vivo, mouse
Text: The inhibitory (or sometimes called passive) avoidance (IA) test is a well accepted animal model of learning/memory used to assess the activity of novel muscarinic agonists to enhance cognitive function (Wanibuchi et al., Eur. J. Pharmacol., 1990, 187:479). Animals are placed in the illuminated (12×14×11 cm) portion of a two-chambered box, from which they enter through a guillotine door to the larger (24×13.5×12 cm) dark compartment of the box. Entry to the dark compartment is accompanied by a mild (0.5 mA), brief (2 seconds) footshock. Initial latencies to cross are recorded, with an imposed 60 second ceiling. Following a 72 hour retention interval, animals are returned to the illuminated chamber, and latency to return to the dark compartment is again recorded, with a ceiling of 180 seconds. No footshock is administered on the test day.
Previous studies have indicated a retention deficit in DBA versus CD1 mice in the 72 hour retention model. Accordingly, adult male DBA mice (n=~15/group) were injected with either the compound of Example 1 or the reference standard RS-86 (0, 0.3, 1.0, or 3.0 mg/kg, i.p.) approximately 45 minutes prior to the training described above. Saline-treated adult male CD1 mice (n=15) served as controls.

DBA and C57BL/6 mice = assay: Mouse plus (water) maze, spatial learning; type: in vivo; settings: 0.3 or 1.0 mg/kg i.p.
Method: The mouse plus maze probes spatial learning processes (Decker and McGaugh, Brain Res. 1989, 477:29). Animals are placed at the terminus of one arm of a four-arm maze submerged in opaque (powdered milk) 25° C. water. Their task is to locate a stationary escape platform hidden at the end of one arm of the maze. The platform remains in the same position across all 4 days of testing. Six daily trials are conducted, during which choice accuracy (correct or incorrect) and latency to escape (maximum=60 seconds) are recorded. Animals failing to escape within 60 seconds are gently guided to the platform, where they are allowed to sit for 20 seconds.
Accordingly, adult male DBA and C57 mice (n=~10/group) were treated with the compound of Example 1 or RS-86 (0, 0.3, or 1.0 mg/kg, i.p.) approximately 45 minutes prior to 4 consecutive daily water maze sessions. Choice accuracy was assessed daily, with day 4 accuracy serving as the primary measure of learning.

CD1 mice = assay: Locomotor activity in automated activity monitors; type: in vivo, mouse
Method: Adult male CD1 mice (n=8/group) were injected with the compound of Example 1 or RS-86 (0, 0.3, 1.0, or 3.0 mg/kg, i.p.) approximately 45 minutes prior to placement in automated activity monitors (Omnitech; Columbus, Ohio). These enclosures, measuring 40×40×42 cm, are equipped with a series of photocells and generate measurements of a variety of locomotor activities.

male CD1 mice = assay: Toxicology / side-effects; type: in vivo; settings: for Fatalities: 0.3, 1.0, 3.0 mg/kg i.p.; for Tolerability: 0.3 and 1.0 mg/kg i.p.
[4] = system: cholinergic receptors located in the heart and cortical tissues; settings: words; cited from earlier work
cardiac receptors = settings: cited from earlier work
cortical receptors = settings: cited from earlier work
[5] = system: parietotemporal cortex of humans; settings: cited from earlier work
M1 muscarinic receptor = target: T1, M1 muscarinic receptor (Rattus norvegicus, UniProt P08482); assay: Competition with [3H]pirenzepine at cortical M1 muscarinic receptors; type: binding; settings: Table 1; [3H]pirenzepine, rat fronto-parietal cortex, 25° C., pH 7.4; read-out: Ki @ M1 RECEPTOR
T1 construct: from tissue; host or cells: adult rat fronto-parietal cortex membranes (homogenate)
T1 sequence (P08482 1-460): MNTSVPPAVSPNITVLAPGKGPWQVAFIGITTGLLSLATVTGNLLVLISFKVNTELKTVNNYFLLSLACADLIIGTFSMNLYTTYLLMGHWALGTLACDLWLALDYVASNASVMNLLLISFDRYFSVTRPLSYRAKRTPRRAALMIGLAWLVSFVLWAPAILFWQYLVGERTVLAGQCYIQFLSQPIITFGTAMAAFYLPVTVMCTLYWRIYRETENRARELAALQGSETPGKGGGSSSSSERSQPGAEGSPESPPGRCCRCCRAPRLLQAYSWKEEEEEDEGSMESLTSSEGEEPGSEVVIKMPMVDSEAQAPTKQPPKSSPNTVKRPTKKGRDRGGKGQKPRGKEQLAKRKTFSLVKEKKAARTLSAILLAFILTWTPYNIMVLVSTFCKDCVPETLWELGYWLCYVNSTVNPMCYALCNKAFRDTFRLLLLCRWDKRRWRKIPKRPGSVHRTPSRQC

M2 muscarinic receptor = M2 muscarinic receptor (Rattus norvegicus, UniProt P10980); type: binding; settings: read-out: Ki @ M2 RECEPTOR; Table 1; [3H]QNB, rat pons-medulla, 25° C., pH 7.4
M2 muscarinic receptor, sequence (P10980 whole entry): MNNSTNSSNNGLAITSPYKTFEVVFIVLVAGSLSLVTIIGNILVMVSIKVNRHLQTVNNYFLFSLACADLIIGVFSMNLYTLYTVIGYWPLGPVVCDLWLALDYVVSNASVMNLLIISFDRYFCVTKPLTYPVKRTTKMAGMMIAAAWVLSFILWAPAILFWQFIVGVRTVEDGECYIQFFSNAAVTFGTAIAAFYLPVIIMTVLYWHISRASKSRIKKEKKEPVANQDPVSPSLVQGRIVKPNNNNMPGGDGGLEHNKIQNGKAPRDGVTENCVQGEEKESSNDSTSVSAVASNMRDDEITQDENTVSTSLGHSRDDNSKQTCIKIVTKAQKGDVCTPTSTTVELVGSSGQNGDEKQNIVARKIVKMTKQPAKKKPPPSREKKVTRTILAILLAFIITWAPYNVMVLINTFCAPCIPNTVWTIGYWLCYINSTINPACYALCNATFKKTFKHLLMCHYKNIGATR

[6] = system: Rat striatal muscarinic receptors; assay: Agonist intrinsic activity: inhibition of forskolin-activated [3H]cAMP in dissociated rat striatum; type: cell-based
Text: Rat striatal muscarinic receptors are coupled to the inhibition of the conversion of adenosine triphosphate (ATP) to cyclic adenosine monophosphate (cAMP). […] The ATP stores in dissociated rat striatum were labeled with [^3 H]adenine and [^3 H]-cAMP levels were elevated with 10 um forskolin.

muscarinic receptors = assay: Initial screening at muscarinic receptors; type: binding; settings: words, on Table 1 data

CC1CCCCN1 (racemic) [(+)isomer of (±)2-methylpiperidine, (+)2-methylpiperidine]
Binding of nicotinic ligand (rat brain receptor sites): enhances the binding of nicotinic ligand

O=C1NC(=O)C2(CCNCC2)N1c1ccccc1 [1-phenyl-1,3,8-triazaspiro[4,5]decan-2,4-dione]
Metabolite of fluspirilene [1]: major product of the metabolism of the neuroleptic drug, fluspirilene

CN1CCC[C@H]1c1cccnc1 [nicotine]
Oral bioavailability ([2]; po): poor oral bioavailability | Pharmacokinetics [2]: unfavorable pharmacokinetics | Cognitive function (rats): enhance cognitive function in rats | Effect on affinity of acetylcholine for the receptor (acetylcholine receptors): without affecting the affinity of acetylcholine for the receptor | Up-regulation of the number of acetylcholine receptors (acetylcholine receptors): 50-100% | Action on neuronal and vascular functions [3]: regenerative/protective action

CCN1C(=O)CC2(CCN(C)CC2)C1=O [RS-86]
Animals that completely failed to cross to the dark compartment in training (DBA mice; 3.0 mg/kg i.p.): nine | Training latencies relative to all other groups (DBA mice; 3.0 mg/kg i.p., F (4,72)=25.8, p<0.00001): elevated relative to all other groups | 72 hour retention deficit of untreated DBAs (DBA mice; RS-86 0.3-3.0 mg/kg i.p.): apparently eliminated the 72 hour retention deficit | Water maze performance in DBA or C57 mice (DBA and C57BL/6 mice): no beneficial effect on water maze performance | Horizontal activity (CD1 mice; 3.0 mg/kg i.p., F (3,28)=29.17, p<0.00001): profound and significant [F (3,28)=29.17, p<0.00001] reduction in horizontal activity | Activity versus animals dosed with the compound of Example 1 (CD1 mice; 0.3 or 1.0 mg/kg i.p.): did not significantly differ | Classic signs of cholinostimulation (male CD1 mice; 3.0 mg/kg i.p.): salivation, lacrimation, urination, defecation, and tremor | Hypothermic response versus similar dose of Example 1 (male CD1 mice; 3.0 mg/kg i.p.): greater hypothermic response | Signs observed (male CD1 mice; 3.0 mg/kg i.p.): dyspnea and decreased activity | Fatalities (male CD1 mice): No fatalities | Tolerability (male CD1 mice): well tolerated | Potency and selectivity [4]: poor potency and lack of selectivity | Agonism at cardiac receptors (cardiac receptors): full agonist | Agonism at cortical receptors (cortical receptors): partial agonist

CNC1(C)C2CCC(C2)C1(C)C (stereo not drawn) [mecamylamine]
Resting cortical perfusion [5]: reduce resting cortical perfusion

CC1OC2(CCN(C)CC2)CN1C=O.O=C(O)C(=O)O (stereo not drawn) [Example 1, 2,8-Dimethyl-1-oxa-3-formyl-3,8-diazaspiro[4,5]decane hydrogen oxalate]
Ki (M1 muscarinic receptor): 32 µM | Ki (M2 muscarinic receptor): 30 µM | Emax ([6]; Rattus norvegicus, read-out: INTRINSIC ACTIVITY (% relative to carbacol)): 53% | Agonist character at central muscarinic receptor ([6]; rat striatum): central muscarinic receptor agonist with partial agonist activity | Latencies across dose groups (DBA mice; 0, 0.3, 1.0, 3.0 mg/kg i.p., DBA mice): latencies were equivalent across all groups | 72 hour retention deficit of DBA mice (DBA mice; 1.0 mg/kg i.p., U=171.5, z=2.04, p<0.05): significant attenuation of the observed retention deficit | 72 hour retention deficit of DBA mice (DBA mice; 3.0 mg/kg i.p., U=172, z=2.0, p<0.05): significant attenuation of the observed retention deficit | Enhancement of learning (choice accuracy) (DBA and C57BL/6 mice): modest, albeit statistically non-significant, enhancement of learning | Performance of DBA mice versus chance level (DBA and C57BL/6 mice; from second day of testing): consistently performed above chance levels | Mean horizontal activity counts (CD1 mice; all doses (0, 0.3, 1.0, 3.0 mg/kg i.p.)): equivalent across all doses | Separation of hypoactivity from cognitive enhancement versus RS-86 (CD1 mice; compared with RS-86): more favorable separation of hypoactivity from the desired activity of cognitive enhancement | Signs observed (male CD1 mice; 3.0 mg/kg i.p.): some dyspnea and a mild decrease in spontaneous activity | Fatalities (male CD1 mice): No fatalities | Tolerability (male CD1 mice): well tolerated | Side-effects in general versus RS-86 (male CD1 mice; compared with RS-86): more benign side-effects | Binding to M1 and M2 muscarinic receptors (muscarinic receptors): binds to both M1 and M2 muscarinic receptors
